Data published in patent US6890951B2, “Treatment of addiction and addiction-related behavior” (Brookhaven Science Associates LLC, priority 1998, dated 2005).
Where two headings read alike, the source gives them in different places.

Assays:
freely moving rats = test: Cocaine-induced stereotypy after a sensitizing regimen of cocaine; assay type: in vivo
Procedure: The phenomenon of sensitization is observed with virtually all drugs of addiction. Sensitization is believed to play a role in the etiology of addiction.
Animals received 15 mg/kg i.p. of cocaine and stereotypy was determined in standard locomotor cages. For 6 consecutive days, animals received 15 mg/kg i.p. of cocaine once a day in their home cages. Eight days later, animals were rechallenged with 15 mg/kg i.p. of cocaine and stereotypy was determined. A five point rating scale was used to assess stereotypy and the rater was blind to the treatment received by each animal.

[1] = system: synaptic DA ([11C]-raclopride binding, corpus striatum); test: Primate PET: [11C]-raclopride DV ratio after cocaine challenge; assay type: in vivo, baboons (Papio anubis); settings: Group 2: cocaine hydrochloride 0.5, 1.0 or 2.0 mg/kg, 5 or 30 minutes prior to second [11C]-raclopride injection
Procedure: Arterial blood samples were obtained throughout the study and selected plasma samples were analyzed for the presence of unchanged radio tracer carbon-11. Animals were not removed from the gantry between isotope injections. Regions of interest (ROI's) were drawn directly on the PET images. Briefly, the corpus striatum was outlined, bilaterally, on every transaxial slice upon which it appeared. The cerebellar ROI was drawn across the midline at the level of the cerebellar vermis. ROI's from the first study were then copied directly onto the corresponding slice from the second. By examining placement of the ROI's on the second scan changes could be made, if necessary, in ROI position only. This multi planar method of analysis reduced differences that may arise due to movement of the animal within the gantry during the scanning interval.
A graphical method for determining the distribution volume (DV) was developed previously for the kinetic analysis of the [^11C]-raclopride data. The DV ratio was the most reproducible measure of raclopride uptake. The ratio is the DV from a receptor-rich region (corpus striatum) to the DV of a non-receptor region (cerebellum). The free receptor concentration was directly proportional to the DV ratio of 1. […]

NAc DA = test: Microdialysis: cocaine/heroin (speedball) induced increases in NAc DA; assay type: in vivo, rats; settings: cocaine 20 mg/kg i.p. or heroin 0.5 mg/kg i.p. alone
Procedure: In vivo microdialysis studies were performed using adult male Sprague-Dawley rats (Taconic Farms) as detailed previously (Morgan and Dewey, 1998). Cocaine, a dopamine reuptake inhibitor, (n=6-8) was administered (i.p.) at a dose of 20 mg/kg while heroin, an indirect dopamine releaser, (n=6-8) was administered (i.p.) at a dose of 0.5 mg/kg. In studies designed to investigate the synergistic effects of a cocaine/heroin combination (n=6-8), both drugs were administered at the identical dose used in the single drug studies. Alone cocaine produced a marked elevation in extracellular DA of approximately 380% above baseline values, 60 minutes following administration. DA returned to baseline within 120 minutes. In contrast, heroin increased NAc DA by only 70%, 60 minutes following administration, returning to baseline within 140 minutes. However, when combined, the two drugs produced an increase in NAc DA of approximately 1000%, 180 minutes following administration that had not returned to baseline values by 200 minutes after reaching peak values (FIG. 9).

male Sprague-Dawley rats = assay type: in vivo
Excerpt: In all rodent studies, male Sprague-Dawley rats were used (200-225 g, Taconic farms, Germantown, N.Y.). Animals were allowed to acclimate to the animal housing facility for at least 5 days prior to beginning the experiments. […] The conditioning procedure for the acquisition phase consisted of 12 sessions carried out consecutively over 12 days.
The animals in each group were randomly assigned to a 2×2 factorial design with one factor being the pairing chamber and the other factor being the order of conditioning. The animals that received either saline or cocaine were injected and confined to the appropriate compartment for 30 minutes.
[…] The amount of time spent in each chamber was recorded using an automated infrared beam electronically coupled to a timer.
In this example the procedure outlined in Section 2 of Materials and Methods was followed.

[2] = system: extracellular DA levels in the NACC; test: Microdialysis: cocaine-induced increases in extracellular DA, earlier studies
[3] = acquisition, Saline/Cocaine pairing, cocaine 20 mg/kg (Table IV)
[4] = acquisition, Saline/Cocaine pairing, cocaine 20 mg/kg (Table V)
[5] = acquisition, Saline/Cocaine pairing, cocaine 20 mg/kg (Table VI)
[6] = expression, Saline/Cocaine pairings, saline on test day (Table IX)
[7] = expression, Saline/Cocaine pairings, saline on test day (Table VII)
[8] = expression, Saline/Cocaine pairings, saline on test day (Table VIII)
[9] = expression, Saline/Cocaine pairings, saline on test day (Table X)

SMILES: COC(=O)[C@H]1[C@@H](OC(=O)c2ccccc2)C[C@@H]2CC[C@H]1N2C [Cocaine]
- Stereotypies on Day 15 (freely moving rats; cocaine 15 mg/kg i.p. rechallenge after sensitizing regimen, 1 ml/kg i.p. 0.9% NaCl before): 4.1 ± 0.5
- Stereotypy score on Day 1 (freely moving rats; cocaine 15 mg/kg i.p., group later given 0.9% NaCl, five point rating scale): 2.5 ± 0.4
- reduction in the mean DV ratio [1]: greater than 30%
- time for DA to return to baseline (NAc DA): ≤ 120 min
- Time spent in chambers, Unpaired (male Sprague-Dawley rats; acquisition, Saline/Cocaine pairing, cocaine 20 mg/kg (Table III)): 3.9 ± 0.4 min
- Time spent in chambers, Paired (male Sprague-Dawley rats; acquisition, Saline/Cocaine pairing, cocaine 20 mg/kg (Table III, 75 mg/kg GVG experiment)): 11.1 ± 0.3^4 min
- Time spent in chambers, Paired (male Sprague-Dawley rats; [3]): 11.8 ± 0.5^4 mins
- Time spent in chambers, Unpaired (male Sprague-Dawley rats; [3]): 3.2 ± 0.5 min
- Time spent in chambers, Paired (male Sprague-Dawley rats; [4]): 11.6 ± 0.5^4 min
- Time spent in chambers, Unpaired (male Sprague-Dawley rats; [4]): 3.4 ± 0.4^5 min
- Time spent in chambers, Paired (male Sprague-Dawley rats; [5]): 11.2 ± 0.6^4 mins
- Time spent in chambers, Unpaired (male Sprague-Dawley rats; [5]): .8 ± 0.5^5 mins
- Time spent in chambers, Paired (male Sprague-Dawley rats; cocaine 5.0 mg/kg i.p.): 8.2 ± 0.4 min
- Time spent in chambers, Unpaired (male Sprague-Dawley rats; cocaine 5.0 mg/kg i.p.): 6.8 ± 0.5 min
- Time spent in chambers, Paired (male Sprague-Dawley rats; cocaine 10.0 mg/kg i.p.): 9.6 ± 0.5^2 mins
- Time spent in chambers, Unpaired (male Sprague-Dawley rats; cocaine 10.0 mg/kg i.p.): 5.4 ± 0.3 min
- Time spent in chambers, Paired (male Sprague-Dawley rats; cocaine 20.0 mg/kg i.p.): 11.8 ± 0.4^3 mins
- Time spent in chambers, Unpaired (male Sprague-Dawley rats; cocaine 20.0 mg/kg i.p.): 3.2 ± 0.4^4 mins
- Time spent in chambers, Paired (male Sprague-Dawley rats; [6]): 11.1 ± 0.5^3 min
- Time spent in chambers, Unpaired (male Sprague-Dawley rats; [6]): 3.9 ± 0.4^4 min
- Time spent in chambers, Paired (male Sprague-Dawley rats; [7]): 11.8 ± 0.5^3 min
- Time spent in chambers, Unpaired (male Sprague-Dawley rats; [7]): 3.2 ± 0.5 min
- Time spent in chambers, Paired (male Sprague-Dawley rats; [8]): 12.2 ± 0.6^3 min
- Time spent in chambers, Unpaired (male Sprague-Dawley rats; [8]): 2.8 ± 0.5 min
- Time spent in chambers, Paired (male Sprague-Dawley rats; [9]): 12.5 ± 0.8^3 min
- Time spent in chambers, Unpaired (male Sprague-Dawley rats; [9]): 2.5 ± 0.6^4 min
- increase of NACC DA levels (rank order) [2]: 450%
